Where a name gives a salt, the structure may show the parent alone.
target: Glutamate NMDA receptor; experiment: In vitro radioligand binding assay for the N-methyl-D-aspartate glutamate receptor is performed using [3H]MK-801 and rat brain membrane suspensions

Ki | SMILES
1280 nM | CCc1cccc(N(C)C(=N)Nc2ccc(Cl)c(Cl)c2)c1
497 nM | CCc1cccc(N(C)C(=N)Nc2cccc(Cl)c2)c1
564 nM | CCc1cccc(N(C)C(=N)Nc2ccccc2C(C)C)c1
265 nM | CCc1cccc(N(C)C(=N)Nc2ccccc2Br)c1
386 nM | CCc1cccc(N(C)C(=N)Nc2ccccc2Cl)c1
116 nM | CCc1cccc(N(C)C(=N)Nc2cccc(Cl)c2Cl)c1
65 nM | CCc1cccc(N(C)C(=N)Nc2cc(Cl)ccc2Cl)c1
3340 nM | CCc1cccc(N(C)C(=N)Nc2ccc(Cl)cc2)c1
101 nM | CCc1cccc(N(C)C(=N)Nc2ccccc2I)c1
81 nM | CCc1cccc(N(C)C(=N)Nc2cccc(Br)c2)c1
156 nM | CCc1cccc(NC(=N)Nc2cccc(Cl)c2Cl)c1

Continued, compound first:

SMILES | Ki
CCc1cccc(NC(=N)Nc2cccc(Br)c2)c1 | 51 nM
CCc1cccc(NC(=N)Nc2cc(CC)cc(CC)c2F)c1 | 50 nM
CCc1cccc(NC(=N)Nc2ccccc2C(C)C)c1 | 230 nM
CCc1cccc(NC(=N)Nc2cc(C)cc(CC)c2Cl)c1 | 77 nM
CCc1cccc(NC(=N)Nc2ccc(Cl)cc2)c1 | 738 nM
CCc1cccc(N(C)C(=N)N(C)c2cc(CC)ccc2Cl)c1 | 111 nM
CCc1cccc(NC(=N)Nc2ccccc2CC)c1 | 350 nM
CCc1cccc(NC(=N)Nc2ccc(Cl)c(Cl)c2)c1 | 204 nM
CCc1cccc(N(C)C(N)=Nc2cccc3ccccc23)c1 [APTIGANEL HYDROCHLORIDE] | 29 nM
CCc1cccc(N(C)C(=N)Nc2cc(C)cc(CC)c2Cl)c1 | 78 nM
CCc1cccc(NC(=N)Nc2cc(Cl)ccc2Cl)c1 | 68 nM
CCc1cccc(NC(=N)Nc2ccc(Cl)cc2Cl)c1 | 140 nM
CCc1cccc(NC(=N)Nc2c(Cl)cccc2Cl)c1 | 133 nM
CCc1cccc(NC(=N)Nc2cc(CC)cc(CC)c2Br)c1 | 29 nM
CCc1cccc(NC(=N)Nc2cc(Cl)cc(Cl)c2)c1 | 115 nM
CCc1cccc(N(C)C(=N)N(C)c2cc(Cl)ccc2Cl)c1 | 72 nM
CCc1cccc(NC(=N)Nc2cc(SC)cc(CC)c2Cl)c1 | 11.8 nM
CCc1cccc(NC(=N)Nc2ccccc2C)c1 | 768 nM
CCc1cccc(NC(=N)Nc2ccccc2Cl)c1 | 249 nM
CCc1cccc(N(C)C(=N)N(C)c2cc(Br)ccc2Br)c1 | 27 nM
CCc1cccc(NC(=N)Nc2cccc(CC)c2)c1 | 129 nM
CCc1cccc(N(C)C(=N)Nc2cc(CC)cc(CC)c2F)c1 | 97 nM
CCc1cccc(N(C)C(=N)Nc2cccc(SC)c2)c1 | 6.4 nM
CCc1cccc(NC(=N)N(C)c2cc(CC)ccc2Cl)c1 | 65 nM
CCc1cccc(NC(=N)Nc2cccc(Cl)c2)c1 | 112 nM
CCc1cccc(NC(=N)Nc2cc(CC)cc(CC)c2)c1 | 129 nM

target: not listed separately; experiment: Binding assay for the sigma receptor sites is performed by utilizing [3H]N,N-di-o-tolylguanidine ([3H]DTG) and guinea pig brain membrane suspensions

IC50 | SMILES
2540 nM | CCc1cccc(N(C)C(N)=Nc2cccc3ccccc23)c1 [APTIGANEL HYDROCHLORIDE]
82 nM | CCc1cccc(NC(=N)N(C)c2cccc(CC)c2)c1
